Measured values from PubChem BioAssay AID1963835 (Molecular Pharmacology Branch, DTP, NCI, 2024).

Tested on: 699152-130-R-J1-PDC complex spheroid viability
Assay: Anticancer human tumor 699152-130-R-J1-PDC patient-derived pancreatic carcinoma cell line growth inhibition [POLQ]
Conditions: for IC50: curve of first compound; for viability, T/C: stronger effect = lower value
Procedure, shortened: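 Patient-derived tumour cells were co-cultured with HUVEC and mesenchymal stem cells as multicellular spheroids at 37 °C. They were treated with POLQ inhibitors (novobiocin, ART-558, RP6685) alone or combined with other agents. Top concentrations were at or near clinical Cmax (otherwise 10 microM; SN-38 at 1 microM), decreasing in half-log steps.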

[1] = second compound 0.0316 µM, first compound 0.0316 µM
[2] = second compound 0.0316 µM, first compound 0.1 µM
[3] = second compound 0.0316 µM, first compound 0.316 µM
[4] = second compound 0.0316 µM, first compound 1 µM
[5] = second compound 0.0316 µM, first compound 3.16 µM
[6] = second compound 0.0316 µM, first compound 10 µM
[7] = second compound 0.1 µM, first compound 0.0316 µM
[8] = second compound 0.1 µM, first compound 0.1 µM
[9] = second compound 0.1 µM, first compound 0.316 µM
[10] = second compound 0.1 µM, first compound 1 µM
[11] = second compound 0.1 µM, first compound 3.16 µM
[12] = second compound 0.1 µM, first compound 10 µM
[13] = second compound 0.316 µM, first compound 0.0316 µM
[14] = second compound 0.316 µM, first compound 0.1 µM
[15] = second compound 0.316 µM, first compound 0.316 µM
[16] = second compound 0.316 µM, first compound 1 µM
[17] = second compound 0.316 µM, first compound 3.16 µM
[18] = second compound 0.316 µM, first compound 10 µM
[19] = second compound 1 µM, first compound 0.0316 µM
[20] = second compound 1 µM, first compound 0.1 µM
[21] = second compound 1 µM, first compound 0.316 µM
[22] = second compound 1 µM, first compound 1 µM
[23] = second compound 1 µM, first compound 3.16 µM
[24] = second compound 1 µM, first compound 10 µM
[25] = second compound 3.16 µM, first compound 0.0316 µM
[26] = second compound 3.16 µM, first compound 0.1 µM
[27] = second compound 3.16 µM, first compound 0.316 µM
[28] = second compound 3.16 µM, first compound 1 µM
[29] = second compound 3.16 µM, first compound 3.16 µM
[30] = second compound 3.16 µM, first compound 10 µM
[31] = second compound 10 µM, first compound 0.0316 µM
[32] = second compound 10 µM, first compound 0.1 µM
[33] = second compound 10 µM, first compound 0.316 µM
[34] = second compound 10 µM, first compound 1 µM
[35] = second compound 10 µM, first compound 3.16 µM
[36] = second compound 10 µM, first compound 10 µM
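Also: spheroids exposed to agents for 7 days before viability reading.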
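For viability, T/C in this document: percent of DMSO vehicle control viability so 100% = vehicle and 0% = no viable signal.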

With `CCCS(=O)(=O)Nc1ccc(F)c(C(=O)c2c[nH]c3ncc(-c4ccc(Cl)cc4)cc23)c1F` + Nc1ccc(C#CCN(C(=O)Cc2ncc(C(F)(F)F)cc2C(F)(F)F)c2ccc(F)cc2)nn1 the IC50 (second compound 0.0316 µM) was 8.52 µM, the IC50 (second compound 0.1 µM) was 8.88 µM and the IC50 (second compound 0.316 µM) was 8.62 µM. For the same compound, the IC50 (second compound 1 µM) was 8.35 µM, the IC50 (second compound 3.16 µM) was 9.38 µM and the IC50 (second compound 10 µM) was greater than 10 µM. It also gave a viability, T/C [1] of 101%, a viability, T/C [2] of 113% and a viability, T/C [3] of 118%. The viability, T/C [4] was 167%, the viability, T/C [5] was 167% and the viability, T/C [6] was 36.3%. For the same compound, the viability, T/C [7] was 109%, the viability, T/C [8] was 117% and the viability, T/C [9] was 119%. For the same compound, the viability, T/C [10] was 143%, the viability, T/C [11] was 188% and the viability, T/C [12] was 40%. For the same compound, the viability, T/C [13] was 111%, the viability, T/C [14] was 113% and the viability, T/C [15] was 132%. It also gave a viability, T/C [16] of 175%, a viability, T/C [17] of 184% and a viability, T/C [18] of 36.2%. For the same compound, the viability, T/C [19] was 96.2%, the viability, T/C [20] was 116% and the viability, T/C [21] was 119%. The viability, T/C [22] was 133%, the viability, T/C [23] was 166% and the viability, T/C [24] was 35.8%. It also gave a viability, T/C [25] of 114%, a viability, T/C [26] of 123% and a viability, T/C [27] of 124%. The viability, T/C [28] was 163%, the viability, T/C [29] was 179% and the viability, T/C [30] was 44.5%. It also gave a viability, T/C [31] of 124%, a viability, T/C [32] of 128% and a viability, T/C [33] of 131%. It also gave a viability, T/C [34] of 161%, a viability, T/C [35] of 192% and a viability, T/C [36] of 52.9%.
Compound `CNCc1ccc(-c2[nH]c3cc(F)cc4c3c2CCNC4=O)cc1` + Nc1ccc(C#CCN(C(=O)Cc2ncc(C(F)(F)F)cc2C(F)(F)F)c2ccc(F)cc2)nn1 has an IC50 (second compound 0.0316 µM) greater than 10 µM, an IC50 (second compound 0.1 µM) greater than 10 µM and an IC50 (second compound 0.316 µM) greater than 10 µM. It also gave an IC50 (second compound 1 µM) greater than 10 µM, an IC50 (second compound 3.16 µM) greater than 10 µM and an IC50 (second compound 10 µM) greater than 10 µM. It also gave a viability, T/C [1] of 103%, a viability, T/C [2] of 98.8% and a viability, T/C [3] of 95.9%. For the same compound, the viability, T/C [4] was 115%, the viability, T/C [5] was 115% and the viability, T/C [6] was 123%. It also gave a viability, T/C [7] of 95.8%, a viability, T/C [8] of 104% and a viability, T/C [9] of 100%. It also gave a viability, T/C [10] of 105%, a viability, T/C [11] of 113% and a viability, T/C [12] of 118%. It also gave a viability, T/C [13] of 85.2%, a viability, T/C [14] of 109% and a viability, T/C [15] of 105%. For the same compound, the viability, T/C [16] was 102%, the viability, T/C [17] was 127% and the viability, T/C [18] was 132%. The viability, T/C [19] was 94.9%, the viability, T/C [20] was 90% and the viability, T/C [21] was 100%. For the same compound, the viability, T/C [22] was 94.6%, the viability, T/C [23] was 112% and the viability, T/C [24] was 132%. For the same compound, the viability, T/C [25] was 105%, the viability, T/C [26] was 93.6% and the viability, T/C [27] was 109%. The viability, T/C [28] was 104%, the viability, T/C [29] was 105% and the viability, T/C [30] was 122%. The viability, T/C [31] was 99.7%, the viability, T/C [32] was 104% and the viability, T/C [33] was 107%. The viability, T/C [34] was 107%, the viability, T/C [35] was 130% and the viability, T/C [36] was 120%.
`COc1cccc2c1C(=O)c1c(O)c3c(c(O)c1C2=O)CC(O)(C(=O)CO)CC3OC1CC(N)C(O)C(C)O1` (stereo unspecified) + Cc1cccc(N(C)C(=O)C2C(O)CCN2c2nc(C)cc(C(F)(F)F)c2C#N)c1 showed an IC50 (second compound 0.0316 µM) of 0.222 µM, an IC50 (second compound 0.1 µM) of 0.244 µM and an IC50 (second compound 0.316 µM) of 0.279 µM. It also gave an IC50 (second compound 1 µM) of 0.276 µM, an IC50 (second compound 3.16 µM) of 0.275 µM and an IC50 (second compound 10 µM) of 0.257 µM. The viability, T/C [1] was 102%, the viability, T/C [2] was 59% and the viability, T/C [3] was 47.5%. It also gave a viability, T/C [4] of 34%, a viability, T/C [5] of 3.59% and a viability, T/C [6] of 10.4%. It also gave a viability, T/C [7] of 81.1%, a viability, T/C [8] of 61.3% and a viability, T/C [9] of 47%. The viability, T/C [10] was 31.3%, the viability, T/C [11] was 3.36% and the viability, T/C [12] was 8.95%. The viability, T/C [13] was 85.7%, the viability, T/C [14] was 66% and the viability, T/C [15] was 49.5%. It also gave a viability, T/C [16] of 29.6%, a viability, T/C [17] of 3.68% and a viability, T/C [18] of 10.9%. It also gave a viability, T/C [19] of 81.9%, a viability, T/C [20] of 68.5% and a viability, T/C [21] of 46.8%. For the same compound, the viability, T/C [22] was 28.7%, the viability, T/C [23] was 4.78% and the viability, T/C [24] was 12.1%. It also gave a viability, T/C [25] of 85%, a viability, T/C [26] of 60.7% and a viability, T/C [27] of 55.2%. It also gave a viability, T/C [28] of 20%, a viability, T/C [29] of 6.82% and a viability, T/C [30] of 10.3%. The viability, T/C [31] was 84.4%, the viability, T/C [32] was 60.2% and the viability, T/C [33] was 53.2%. The viability, T/C [34] was 12%, the viability, T/C [35] was 7.55% and the viability, T/C [36] was 10.8%.
